Key:
[1] = system: Oct-4 expression in hESCs; assay: hESCs carrying Oct-4 promoter-driven EGFP reporter, with or without bFGF; format: cell-based, human
Text: (d) bFGF is critical for sustaining undifferentiated growth of hESCs carrying an Oct-4-driven reporter gene. hESCs carrying a reporter gene (enhanced green fluorescence protein [EGFP]) that is under control of the Oct-4 promoter was generated via lentiviral-mediated transduction.
FIG. 6: (a) Growth of hESCs carrying an Oct-4-driven reporter gene in the presence or absence of bFGF. hESCs carrying a reporter gene (enhanced green fluorescence protein [EGFP]) that is under control of the Oct-4 promoter was generated via lentiviral-mediated transduction. Transfected hESCs were cultivated under the feeder-free conditions in the defined media with bFGF (20 ng/ml) or without bFGF for 4 days. […] The cells were further dissociated and analyzed on a BD FacsSort instrument after staining with 7-aminoactinomycin D (7-AAD) to eliminate the dead cells [E]. With FACS-sorting, significant increases (200%) of Oct4-EGFP negative cells were observed after withdrawal bFGF for 4 days. (Note the actual percentage of Oct4-EGFP negative cells in the absence of bFGF should be even higher, because it takes around 2 days for the green fluorescence to be completely quenched after Oct-4 expression has been turned off.) (b) bFGF concentration in MEF-CM. Growth-arrested MEFs were obtained from Specialty Media (Phillipsburg, N.J.). […] 50 μl of concentrates was loaded onto a SDS/PAGE gel and analyzed by Western blot. […]
To discover the minimal essential conditions needed to support the long-term growth of undifferentiated hESCs, morphological analysis was used to assess the developmental stage of hESCs at different times. […] The state of differentiation of hESC was further assessed by generating (via lentiviral-mediated transduction) hESCs carrying a reporter gene (enhanced green fluorescence protein (EGFP)) under control of the Oct-4 promoter. Using these transfected hESCs (carrying Oct-4 driven EGFP), the undifferentiated state of hESCs can be visualized by green fluorescence (indicating Oct-4 expression). […]

[2] = system: p38 MAPK; assay: p38 MAPK phosphorylation in hESCs (Western blot, immunocytochemistry); format: cell-based, human
Text: (e) bFGF is essential for maintaining hESCs in a healthy undifferentiated state, in part through MAPK signaling […]. In media lacking bFGF, hESC colonies maintained on Matrigel-coated plates have a completely differentiated morphology upon the first passage [A]. To examine the signaling pathways that might be mediated by bFGF, the phosphorylation level of p38 MAPK in undifferentiated (in the presence of bFGF [+bFGF]) and differentiated (in the absence of bFGF [−bFGF]) hESCs was examined. […] White arrows delineate the edge of an hESC colony.
To help understand the molecular mechanisms underlying bFGF's role in maintaining undifferentiated growth of hESCs, the mitogen-activated protein kinase (MAPK) signaling pathway was examined.

[3] = system: human embryonic stem cells (hESCs); assay: bFGF dose-response, maintenance of undifferentiated hESCs under feeder-free condition on laminin/collagen-coated plates; format: cell-based
Method: (c) bFGF dose-response assays—assessing maintenance of the undifferentiated state.
To discover the minimal essential conditions needed to support the long-term growth of undifferentiated hESCs, morphological analysis was used to assess the developmental stage of hESCs at different times. For these analyses hESCs were grown in a 6- or 12-well plate to maturation (day 6 or 7 after seeding) before being fixed and visualized under a phase contrast microscope. Cellular immunofluorescence was also employed to assess the state of differentiation of hESCs. To perform these studies, hESCs were grown to maturation (day 6 or 7 after seeding) in a 12- or 24-well plate with a round cover slide in the bottom of each well. The cells were then fixed with 4% paraformaldehyde and blocked in PBS buffer containing 0.2% Triton X-100 and 2% BSA. Next, the cells were incubated with a primary antibody (Oct-4, SSEA-1, SSEA-3, SSEA-4, Tra-1-60, Tra-1-81, alkaline phosphatase, Myc, Map-2, Nkx2.5, bFGF (Santa Cruz Biotechnology, Inc.; Santa Cruz, Calif., world wide web: scbt.com) nestin, tyrosine hydroxylase (Chemicon International, Temecula, Calif., world wide web: chemicon.com), beta-tubulin (Sigma), p300, Tip60, or acetylated H4 (K5, 8, 12, 16) (Upstate Biotechnology, Lake Placid, N.Y., world wide web: upstate.com) in wash buffer (0.1% Triton X-100 in PBS) at 4° C. overnight, and then with secondary antibody (Molecular Probe; Eugene, Oreg., world wide web: probes.com) in wash buffer at room temperature for 45 minutes. After further staining with DAPI, cells were mounted onto a microscope slide and visualized under an immunofluorescence and deconvolution microscope. The state of differentiation of hESC was further assessed by generating (via lentiviral-mediated transduction) hESCs carrying a reporter gene (enhanced green fluorescence protein (EGFP)) under control of the Oct-4 promoter. Using these transfected hESCs (carrying Oct-4 driven EGFP), the undifferentiated state of hESCs can be visualized by green fluorescence (indicating Oct-4 expression).
The mechanism by which MEF-conditioned media exerts these effects is unknown, and it could involve the presence of growth factors, removal of toxic factors from the medium, or both. Based on the discovery that bFGF (at relatively high concentrations) promotes undifferentiated growth of hESCs on HFFs, it was decided to test whether bFGF promotes undifferentiated growth of hESCs on matrix proteins in the absence of feeder cells. Gelatin pre-coated plates were incubated with a commercially-available combination of laminin and collagen known as Matrigel (Growth factor reduced, Becton Dickinson) [diluted 1:30 in cold DMEM/F-12] at 4° C. overnight. The growth of hESCs on laminin/collagen-coated plates in the defined hESC media containing 20 ng/ml bFGF was examined. […]
To further assess the effect of bFGF on hESC undifferentiated growth, short-term proliferation assays of hESCs maintained under the feeder-free condition in the defined hESC media containing 0, 4, 10, 20, 30, or 50 ng/ml bFGF were performed. […] To further affirm the role of bFGF on hESC undifferentiated growth, hESCs carrying a reporter gene (enhanced green fluorescence protein [EGFP]) under control of Oct-4 promoter were generated (via lentiviral-mediated transduction).

“bFGF: basic fibroblast growth factor, growth factor added to the defined hESC media” was tested, and the “cells inside colonies with differentiated morphology that ceased Oct-4 expression” value ([1]; absence of bFGF, first passage (day 7 after seeding)) was “more than 70%”, the “morphology and Oct-4-driven EGFP fluorescence of hESC colonies” value ([1]; defined media containing 20 ng/ml bFGF, feeder-free) was “undifferentiated morphology and strong green fluorescence” and the “increase of Oct4-EGFP negative cells by FACS” value ([1]; withdrawal of bFGF for 4 days) was 200%. The “large differentiated cells displaying high levels of p38 phosphorylation” value ([2]; absence of bFGF) was “about 5%”, the “p38 MAPK form in undifferentiated hESCs by immunocytochemistry” value ([2]; defined media containing 20 ng/ml bFGF) was “unphosphorylated inactive form of p38 MAPK was present robustly” and the “phosphorylation levels of p38 MAPK by Western blot” value ([2]; increased bFGF concentrations) was “no changes”. For the same substance, the “hESC colonies with completely differentiated morphology that ceased expressing Oct-4” value ([3]; absence of bFGF, laminin/collagen, first passage) was “approximately 80%”, the “percentage of undifferentiated hESC colonies at higher dosages” value ([3]; bFGF 30 and 50 ng/ml versus 20 ng/ml, 7 days) was “slightly decreased percentages of undifferentiated hESC colonies” and the “hESC colonies highly compact and undifferentiated (morphology, Oct-4, SSEA-4, Tra-1-60, Tra-1-81 expression)” value ([3]; defined hESC media containing 20 ng/ml bFGF, laminin/collagen-coated plates, each passage, day 7) was “Over 80%”. The “differentiation rate of hESCs” value ([3]; low concentration of bFGF (4 ng/ml), feeder-free, defined media) was “high differentiation rates” and the “bFGF concentration maintaining the optimal proportion of undifferentiated hESCs, comparable to MEF-CM” value ([3]; tested 0, 4, 10, 20, 30, 50 ng/ml, 7 days) was 20 ng/mL.

— patent US20080241919A1, “Defined media for pluripotent stem cell culture” (The Burnham Institute of Medical Research, priority 2003, published 2008)
